Test system: subjects with major depressive disorder (MDD) who were inadequate responders to citalopram
Assay: SIS (Sheehan Irritability Scale), total and individual items, Phase 2b add-on trial
Type: in vivo, human
Design: SIS Adj. Mean change / SIS total score change Adjusted Mean / SIS Anger With Others change Adjusted Mean / SIS Anger With Self change Adjusted Mean / SIS Edginess change Adjusted Mean / SIS Irritability change Adjusted Mean / SIS Moodiness change Adjusted Mean / SIS Temper change Adjusted Mean: scale not given here
Experimental: In more detail, a multi-center double-blind, randomized, placebo-controlled, parallel group, flexible dose titration study of TC-5214 as adjunctive therapy in subjects with major depressive disorder (MDD) who were inadequate responders to citalopram was conducted in centers in the US and India. The study consisted of a screening period, baseline/washout period, open-label phase, double-blind phase, and a follow-up visit. Subject participation in the study could continue for up to 16 weeks of treatment. Following a washout period of up to 28 days for other antidepressants, subjects with MDD and a MADRS total score >/=28 and a Clinical Global Impression-Severity (CGI-S) score >/=4 were enrolled on Day 1 into an open-label citalopram-only phase of the study. This phase lasted 8 weeks, with citalopram (CIT) dose increased from a once-daily dose of 20 mg (Day 1 through Week 4) to 40 mg (Week 4 through Week 8). A total of 579 subjects entered the open-label citalopram phase. At Week 8, subjects who tolerated 40 mg CIT, but whose MADRS score was reduced <50% from baseline and no lower than 17, and CGI-S≧4, were considered inadequate responders. These subjects (n=270) were randomized in a double-blind fashion to receive either placebo or TC-5214-23 as add-on therapy to continued CIT. The double-blind phase of the study also lasted 8 weeks (Week 8 to Week 16). Study drug, TC-5214-23 or placebo, was started at 2 mg daily (1 mg twice per day [BID] dosing), added on to continuing CIT (40 mg PO qd). After 2 weeks of treatment, the dose of TC-5214 could be increased to 4 mg (2 mg BID) or continued unchanged, with up-titration based upon good tolerability and inadequate therapeutic response. After a further 2 weeks, the dose of TC-5214 could be increased again to 8 mg (4 mg BID) if judged appropriate by the investigator, based upon good tolerability and inadequate therapeutic response. At any time during the double-blind phase of the study, placebo or TC-5214-23 could be reduced to the previous dose level following the emergence of unacceptable adverse events (AEs). […] At this follow-up, any signs or symptoms of relapse were evaluated. If a subject was prematurely discontinued from the study between Week 8 and Week 16 for any reason, the investigator was to make every effort to perform all evaluations as per protocol, assuming the subject had reached the end of the double-blind add-on treatment phase. These evaluations were to be made as soon as possible and within 2 weeks of discontinuation. […] There was no meaningful difference in results as a function of age, gender, site, or smoking status. [table] With regard to efficacy endpoints, the following tables present efficacy used in the ITT (Intent-to-Treat) and PP (Per Protocol) populations unless otherwise specific. The primary inference was based upon Week 16 visit using the ITT population. Change from baseline was obtained by subtracting the baseline values from the individual on-treatment values. Change from Week 16 was obtained by subtracting the Week 16 values from the individual follow-up visit (Week 18/19) values. If either the baseline or Week 16 or on-treatment or follow-up value was missing, the change from baseline or Week 16 value was also set to missing. To account for missing data, the last observation carry forward (LOCF) method was used for the ITT and PP populations. Thus, the last available on-therapy observation for a subject, including the observation at premature discontinuation, was used to estimate subsequent missing data points. For efficacy, baseline data were collected at Week 8 in the double-blind augmentation phase electronic case report form pages. For SIS, the endpoint was the change from Week 8 (double-blind baseline) to Week 16 of the SIS. Changes were analyzed using ANCOVA. Each SIS item score was also analyzed using ANCOVA. […]

[1] = ITT population, Double Blind Week 16 LOCF, change from DB baseline
[2] = ITT population, Double Blind Week 18 LOCF (Follow-up), change from Week 16
[3] = PP population, Double Blind Week 16 LOCF, change from DB baseline
[4] = PP population, Double Blind Week 18 LOCF (Follow-up), change from Week 16

CN[C@@]1(C)[C@@H]2CC[C@@H](C2)C1(C)C [TC5214]
SIS Anger With Others change Adjusted Mean [1]: −2.56 | SIS Anger With Others change Mean Difference between TC-5214 and Placebo [1]: 1.22 | SIS Anger With Self change Adjusted Mean [1]: −2.29 | SIS Anger With Self change Mean Difference between TC-5214 and Placebo [1]: 1.01 | SIS Edginess change Adjusted Mean [1]: −2.55 | SIS Edginess change Mean Difference between TC-5214 and Placebo [1]: 1.14 | SIS Frustration change Adjusted Mean [1]: −2.74 | SIS Frustration change Mean Difference between TC-5214 and Placebo [1]: 1.42 | SIS Irritability change Adjusted Mean [1]: −2.74 | SIS Irritability change Mean Difference between TC-5214 and Placebo [1]: 1.38 | SIS Moodiness change Adjusted Mean [1]: −3.00 | SIS Moodiness change Mean Difference between TC-5214 and Placebo [1]: 1.51 | SIS Temper change Adjusted Mean [1]: −2.37 | SIS Temper change Mean Difference between TC-5214 and Placebo [1]: 1.19 | SIS Anger With Others change Adjusted Mean [2]: −0.07 | SIS Anger With Others change Mean Difference between TC-5214 and Placebo [2]: 0.01 | SIS Anger With Self change Adjusted Mean [2]: −0.07 | SIS Anger With Self change Mean Difference between TC-5214 and Placebo [2]: 0.09 | SIS Edginess change Adjusted Mean [2]: −0.24 | SIS Edginess change Mean Difference between TC-5214 and Placebo [2]: 0.01 | SIS Frustration change Adjusted Mean [2]: −0.09 | SIS Frustration change Mean Difference between TC-5214 and Placebo [2]: −0.06 | SIS Irritability change Adjusted Mean [2]: −0.14 | SIS Irritability change Mean Difference between TC-5214 and Placebo [2]: −0.08 | SIS Moodiness change Adjusted Mean [2]: −0.13 | SIS Moodiness change Mean Difference between TC-5214 and Placebo [2]: −0.05 | SIS Temper change Adjusted Mean [2]: −0.11 | SIS Temper change Mean Difference between TC-5214 and Placebo [2]: −0.07 | SIS Anger With Others change Adjusted Mean [3]: −2.77 | SIS Anger With Others change Mean Difference between TC-5214 and Placebo [3]: 1.42 | SIS Anger With Self change Adjusted Mean [3]: −2.54 | SIS Anger With Self change Mean Difference between TC-5214 and Placebo [3]: 1.13 | SIS Edginess change Adjusted Mean [3]: −2.81 | SIS Edginess change Mean Difference between TC-5214 and Placebo [3]: 1.36 | SIS Frustration change Adjusted Mean [3]: −3.00 | SIS Frustration change Mean Difference between TC-5214 and Placebo [3]: 1.59 | SIS Irritability change Adjusted Mean [3]: −3.00 | SIS Irritability change Mean Difference between TC-5214 and Placebo [3]: 1.58 | SIS Moodiness change Adjusted Mean [3]: −3.34 | SIS Moodiness change Mean Difference between TC-5214 and Placebo [3]: 1.71 | SIS Temper change Adjusted Mean [3]: −2.55 | SIS Temper change Mean Difference between TC-5214 and Placebo [3]: 1.36 | SIS Anger With Others change Adjusted Mean [4]: −0.10 | SIS Anger With Others change Mean Difference between TC-5214 and Placebo [4]: 0.03 | SIS Anger With Self change Adjusted Mean [4]: −0.09 | SIS Anger With Self change Mean Difference between TC-5214 and Placebo [4]: 0.11 | SIS Edginess change Adjusted Mean [4]: −0.27 | SIS Edginess change Mean Difference between TC-5214 and Placebo [4]: 0.05 | SIS Frustration change Adjusted Mean [4]: −0.09 | SIS Frustration change Mean Difference between TC-5214 and Placebo [4]: −0.04 | SIS Irritability change Adjusted Mean [4]: −0.14 | SIS Irritability change Mean Difference between TC-5214 and Placebo [4]: −0.07 | SIS Moodiness change Adjusted Mean [4]: −0.13 | SIS Moodiness change Mean Difference between TC-5214 and Placebo [4]: −0.01 | SIS Temper change Adjusted Mean [4]: −0.14 | SIS Temper change Mean Difference between TC-5214 and Placebo [4]: −0.00
